Series [1] concerns the target T1, P2X purinoceptor 7 (Homo sapiens, UniProt Q99572).
T1 sequence (Q99572 whole entry): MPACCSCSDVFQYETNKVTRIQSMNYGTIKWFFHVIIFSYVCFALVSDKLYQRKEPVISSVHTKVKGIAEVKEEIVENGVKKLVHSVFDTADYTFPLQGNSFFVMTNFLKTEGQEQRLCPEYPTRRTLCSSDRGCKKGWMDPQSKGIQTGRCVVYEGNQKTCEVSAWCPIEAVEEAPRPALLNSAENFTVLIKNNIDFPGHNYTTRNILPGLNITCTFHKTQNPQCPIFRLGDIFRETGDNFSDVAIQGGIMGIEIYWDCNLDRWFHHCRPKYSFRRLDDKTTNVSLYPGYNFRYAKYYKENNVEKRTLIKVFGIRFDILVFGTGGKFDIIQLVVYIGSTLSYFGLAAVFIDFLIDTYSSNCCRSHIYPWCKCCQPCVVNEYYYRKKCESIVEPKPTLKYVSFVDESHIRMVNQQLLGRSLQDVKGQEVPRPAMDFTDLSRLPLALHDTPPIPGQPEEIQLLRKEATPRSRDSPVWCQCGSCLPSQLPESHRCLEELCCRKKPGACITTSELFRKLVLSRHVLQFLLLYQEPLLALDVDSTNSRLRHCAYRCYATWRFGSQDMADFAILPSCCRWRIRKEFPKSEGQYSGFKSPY
Briefly: Inhibition of human P2X7 receptor assessed as inhibition of ethidium bromide accumulation.

The target in series [2] is T2, P2X purinoceptor 7 (Homo sapiens) (UniProt Q99572).
T2 sequence (whole entry): T1 sequence (Q99572 whole entry)
Briefly: Inhibition of human P2X7 receptor assessed as inhibition of ethidium bromide accumulation relative to control.

Series [3] has as its target T3, P2X purinoceptor 7 (Rattus norvegicus, UniProt Q64663).
T3 sequence (Q64663 whole entry): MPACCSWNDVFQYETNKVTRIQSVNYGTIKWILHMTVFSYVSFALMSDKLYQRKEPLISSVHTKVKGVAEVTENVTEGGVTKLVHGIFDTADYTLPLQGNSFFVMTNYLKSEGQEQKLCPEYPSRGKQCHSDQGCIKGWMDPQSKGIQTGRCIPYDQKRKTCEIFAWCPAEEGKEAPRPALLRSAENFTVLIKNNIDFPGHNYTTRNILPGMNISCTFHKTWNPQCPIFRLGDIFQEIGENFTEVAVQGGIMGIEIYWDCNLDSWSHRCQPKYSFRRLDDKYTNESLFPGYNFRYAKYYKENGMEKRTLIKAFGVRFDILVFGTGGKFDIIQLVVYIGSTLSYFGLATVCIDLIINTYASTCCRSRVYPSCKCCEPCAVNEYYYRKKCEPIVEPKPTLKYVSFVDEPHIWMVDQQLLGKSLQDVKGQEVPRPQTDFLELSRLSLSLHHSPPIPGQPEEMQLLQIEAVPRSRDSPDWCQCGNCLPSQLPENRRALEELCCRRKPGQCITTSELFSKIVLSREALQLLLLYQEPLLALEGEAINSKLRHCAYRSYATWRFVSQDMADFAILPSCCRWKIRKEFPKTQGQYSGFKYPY
Briefly: Inhibition of rat P2X7 receptor assessed as inhibition of ethidium bromide accumulation.

Series [4] in a line: Aqueous solubility of the compound. The series is classed as physicochemical.
The nature of series [5]: Clearance in rat blood at 1 mg/kg, iv. The series is classed as ADME, organism-based. The arrangement: dose 1 mg/kg, route intravenous.
A short description of series [6]: Half life in rat blood at 1 mg/kg, iv. The arrangement: dose 1 mg/kg, route intravenous. Format: ADME, organism-based.
Series [7] is described as follows: Volume of distribution at steady state in rat blood at 1 mg/kg, iv. The series is classed as ADME, organism-based. Particulars: read-out: Vdss. More on the design: dose 1 mg/kg, route intravenous.
Series [8] is described as follows: Tmax in rat blood at 3 mg/kg, po. Format: ADME, organism-based. More on the design: dose 3 mg/kg, route oral.
Series [9] in a line: Cmax in rat blood at 3 mg/kg, po. The series is classed as ADME, organism-based. The arrangement: dose 3 mg/kg, route oral.
A further series has as its system Rattus norvegicus. Briefly: Dose normalized AUC in rat blood at 3 mg/kg, po. Format: ADME, organism-based. The arrangement: dose 3 mg/kg, route oral. The conditions noted are these: in vivo.
Series [10] can be described thus: Oral bioavailability in rat blood at 3 mg/kg, po. The series is classed as ADME, organism-based.

This is an account of results in ChEMBL document CHEMBL1157114, “Synthesis and structure-activity relationships of a series of (1H-pyrazol-4-yl)acetamide antagonists of the P2X7 receptor” (Bioorg Med Chem Lett, 2010).

A word on the IC50: it is the concentration needed to halve the response being measured. A word on the solubility: it is the concentration that dissolves in the medium under given conditions. High values mean a readily soluble substance, low ones a poorly soluble substance. What is called clearance is the volume of plasma or blood freed of the substance per unit of time. High values mean a high capacity for elimination, low ones a low capacity for elimination. The term half-life denotes how long it takes for the measured level to halve. A lower half-life goes with fast loss. A word on the Tmax: it is the time from dosing to the highest level. A word on the Cmax: it is the highest concentration seen after dosing. The bioavailability is dose-corrected exposure relative to a reference, in per cent. A high value points to good availability.

Molecules are shown by their SMILES. ≈ marks a conversion by molar mass, not a printed value.

On to `Cc1nn(-c2ccccc2)c(C)c1C(=O)NCc1ccc(F)cc1Cl`, for which the IC50 on P2X purinoceptor 7 [1] is above 1000 nM. The Imax in series [2] amounted to 100%.

Turning to `Cc1c(CC(=O)NCc2ccc(F)cc2Cl)cnn1-c1ccccc1`, the IC50 on P2X purinoceptor 7 [1] is 158 nM. In addition, in series [2], the Imax was 100%.

`Cc1nn(-c2ccccc2)c(C)c1CC(=O)NCc1cccc(Cl)c1Cl`: the 50% inhibitory concentration (IC50) on P2X purinoceptor 7 [1] was 25.1 nM. In series [2], the Imax was determined as 100%.

In the case of `Cc1nc(-c2ccccc2)sc1CC(=O)NCc1ccc(F)cc1Cl`, on P2X purinoceptor 7 [1], the IC50 was above 1000 nM. In series [2], the Imax is 100%.

For `Cc1nn(Cc2ccccc2)c(C)c1CC(=O)NCc1ccc(F)cc1Cl`, the IC50 at P2X purinoceptor 7 [1] was 316 nM. For the same compound, the Imax in series [2] turned out to be 100%.

As to `Cc1nn(CCO)c(C)c1CC(=O)NCc1ccc(F)cc1Cl`, on P2X purinoceptor 7 [1], the 50% inhibitory concentration (IC50) is 200 nM. Moreover, the Imax in [2] was 100%.

On to `Cc1nn(-c2ccccc2)c(C)c1CC(=O)NC(C)(C)c1ccccc1`, for which, at P2X purinoceptor 7 [1], the IC50 is 126 nM. The Imax in series [2] was determined as 100%.

Regarding `Cc1nn(-c2ccccc2)c(C)c1CC(=O)NC1CCCCCC1`, the 50% inhibitory concentration (IC50) at P2X purinoceptor 7 [1] is 158 nM. Further, the Imax in series [2] was determined as 100%.

As to `Cc1nn(-c2ccccc2)c(C)c1CC(=O)NCc1ccc(F)cc1Cl`, the IC50 is 39.8 nM on P2X purinoceptor 7 [1] and 100 nM at P2X purinoceptor 7 [3]. Further, in [4], the solubility was 110 µg/mL (≈ 296 µM). The Imax in series [2] was 100%.

For the compound `Cc1nn(CCN(C)C)c(C)c1CC(=O)NCc1ccc(F)cc1Cl`, at P2X purinoceptor 7 [1], the IC50 was 316 nM. Also, in [2], the Imax stood at 100%.

Turning to `Cc1oc(-c2ccccc2)nc1CC(=O)NCc1ccc(F)cc1Cl`, the IC50 on P2X purinoceptor 7 [1] was above 1000 nM. For the same compound, the Imax in [2] worked out at 100%.

In the case of `COc1ccccc1CNC(=O)Cc1c(C)nn(-c2ccccc2)c1C`, the 50% inhibitory concentration (IC50) at P2X purinoceptor 7 [1] was above 1000 nM. Moreover, the Imax in series [2] stood at 100%.

With `Cc1nn(-c2ccc(Cl)cc2)c(C)c1CC(=O)NCc1ccc(F)cc1Cl`, on P2X purinoceptor 7 [1], the half-maximal inhibitory concentration (IC50) was 63.1 nM. Further, the Imax in series [2] is 100%.

For the compound `Cc1nn(-c2ccc(C(N)=O)cc2)c(C)c1CC(=O)NCc1ccc(F)cc1Cl`, the IC50 on P2X purinoceptor 7 [1] is 10 nM. In addition, the Imax in series [2] is 100%.

For `Cc1nn(-c2ccccc2)c(C)c1CC(=O)N(C)Cc1ccc(F)cc1Cl`, the IC50 at P2X purinoceptor 7 [1] is above 1000 nM. Further, in series [2], the Imax was 100%.

`Cc1nn(Cc2cccnc2)c(C)c1CC(=O)NCc1ccc(F)cc1Cl`: on P2X purinoceptor 7 [1], the half-inhibitory concentration (IC50) was 126 nM. In [2], the Imax was found to be 100%.

For the compound `Cc1nn(-c2ccccc2)c(C)c1CC(=O)NCc1cc(Cl)cc(Cl)c1`, the IC50 on P2X purinoceptor 7 [1] was above 631 nM. Further, the Imax in series [2] is 100%.

In the case of `Cc1cccnc1CNC(=O)Cc1c(C)nn(-c2ccccc2)c1C`, on P2X purinoceptor 7 [1], the half-maximal inhibitory concentration (IC50) is above 1000 nM. In series [2], the Imax turned out to be 100%.

In the case of `Cc1nn(-c2ccccc2)c(C)c1CC(=O)NCc1ccccc1Cl`, the 50% inhibitory concentration (IC50) at P2X purinoceptor 7 [1] was 1000 nM. Further, the Imax in [2] stood at 100%.

With `Cc1nn(-c2ccccc2)c(C)c1NC(=O)NCc1ccc(F)cc1Cl`, at P2X purinoceptor 7 [1], the IC50 is 251 nM. The Imax in [2] was 100%.

On to `O=C(CN1CC(=O)N(c2ccccc2)C1=O)NCc1ccc(F)cc1Cl`, for which the Imax in [2] worked out at 100%.

For the compound `Cc1nn(-c2ccccc2)c(C)c1CC(=O)NCc1ccccc1`, the IC50 on P2X purinoceptor 7 [1] is above 1000 nM. In [2], the Imax is 100%.

As for `Cc1nc(-c2ccccc2)n(C)c1CC(=O)NCc1ccc(F)cc1Cl`, on P2X purinoceptor 7 [1], the 50% inhibitory concentration (IC50) was 50.1 nM. The Imax in series [2] worked out at 100%.

With `Cc1n[nH]c(C)c1CC(=O)NCc1ccc(F)cc1Cl`, the results for the IC50 on P2X purinoceptor 7 [1] and at P2X purinoceptor 7 [3] were 20 nM and 158 nM, respectively. In addition, the clearance in series [5] was 15 mL/min/kg. Further, the half-life in series [6] is 1.7 h. Besides, the Vd in series [7] is 1.6 L/kg. The time to peak (Tmax) in [8] turned out to be 1 h. The concentration in series [9] peaked (Cmax) at 2920 nM. Further, the AUC in the series with Rattus norvegicus came out at 58 kg·min/L. Further, the bioavailability in [10] is 90%. In series [4], this compound returned a solubility of 732 µg/mL (≈ 2480 µM). In addition, the Imax in series [2] was found to be 100%.

As to `Cc1nn(-c2ccccc2)c(C)c1CNC(=O)Cc1ccc(F)cc1Cl`, on P2X purinoceptor 7 [1], the IC50 was above 1000 nM. Besides, the Imax in [2] was determined as 100%.

`COc1ccc(-n2nc(C)c(CC(=O)NCc3ccc(F)cc3Cl)c2C)cc1`: the half-inhibitory concentration (IC50) at P2X purinoceptor 7 [1] is 100 nM. For the same compound, the Imax in [2] amounted to 100%.

`Cc1nn(-c2ncccn2)c(C)c1CC(=O)NCc1ccc(F)cc1Cl`: the half-maximal inhibitory concentration (IC50) on P2X purinoceptor 7 [1] was 50.1 nM. Moreover, the Imax in series [2] came out at 100%.

On to `Cc1nn(-c2ccccc2)c(C)c1Cc1nnc(Cc2ccc(Cl)cc2Cl)o1`, for which the concentration for half-maximal inhibition (IC50) at P2X purinoceptor 7 [1] was 1260 nM. In addition, the Imax in series [2] worked out at 100%.

Take `Cc1sc(-c2ccccc2)nc1CC(=O)NCc1ccc(F)cc1Cl`: the half-maximal inhibitory concentration (IC50) at P2X purinoceptor 7 [1] is above 1000 nM. For the same compound, the Imax in series [2] came to 100%.

On to `Cc1nn(-c2ccccc2)cc1CC(=O)NCc1ccc(F)cc1Cl`, for which, on P2X purinoceptor 7 [1], the IC50 is 158 nM. Besides, the Imax in series [2] came to 100%.

`Cc1nn(-c2ccccc2)c(C)c1CC(=O)NCc1ccc(Cl)cc1Cl`: on P2X purinoceptor 7 [1], the IC50 is 79.4 nM. Further, the Imax in series [2] was determined as 100%.

`Cc1nn(C)c(C)c1CC(=O)NCc1ccc(F)cc1Cl`: the IC50 on P2X purinoceptor 7 [1] is 158 nM. Further, in series [2], the Imax stood at 100%.
